Measurements: patent US6291247A, “Methods of screening for factors that disrupt neurotrophin conformation and reduce neurotrophin biological activity” (priority 1996, dated 2001)

System: TrkA receptor
Assay: NGF-dependent TrkA phosphorylation in PC12 cells, metal ions
Type: cell-based, rat
Protocol: Zn^2+ and/or other additives were allowed to equilibrate with NGF for 2 hours at 4° C. prior to addition of cells. PC12 cells were used at 10^6 cells/ml and incubated with 40 pM NGF for 15 minutes at 37° C. At the conclusion of the reaction, cells were washed, lysed in TBS containing 10% glycerol, 1% Triton X-100, 1 mM PMSF, 10 μg/ml aprotinin, 1 μg/ml leupeptin and 500 μM orthovanadate (lysis buffer, 10^8 cells/ml). The cellular debris was removed by centrifugation and the soluble proteins incubated with an anti-TrkA cytoplasmic domain antibody. Antibody complexes were isolated by incubating with immobilized protein G (Pierce Ultralink; 70 μl of a 50% slurry) for 2 hours at 4° C. The solid phase was washed extensively with lysis buffer and the pellet dissolved in SDS sample buffer. Proteins were resolved using 6% SDS PAGE and Western analysis performed with anti-phosphotyrosine 4G10 (UBI) visualized with ECL (Amersham).

## [Zn+2] [Zn^2+]
100 μM, PC12 cells
  NGF-induced TrkA phosphorylation: prevented phosphorylation
No NGF
  Basal TrkA phosphorylation: no effect on basal TrkA phosphorylation
